Results published in ChEMBL document CHEMBL4715697, “Synthesis and biological activity of benzamide DNA minor groove binders” (2016).

What was measured:
Assay type in all cases: functional
[1] = test system: HCC 2998; test: Growth inhibition of human HCC 2998 cells assessed as cell growth at 0.01 uM incubated for 48 hrs by sulforhodamine B assay relative to control; conditions: read-out: Activity
[2] = test system: SF-539; test: Growth inhibition of human SF-539 cells assessed as cell growth at 0.01 uM incubated for 48 hrs by sulforhodamine B assay relative to control; conditions: read-out: Activity
[3] = test system: LOX IMVI; test: Growth inhibition of human LOX IMVI cells assessed as cell growth at 0.01 uM incubated for 48 hrs by sulforhodamine B assay relative to control; conditions: read-out: Activity
[4] = test system: SK-MEL-5; test: Growth inhibition of human SK-MEL-5 cells assessed as cell growth at 0.01 uM incubated for 48 hrs by sulforhodamine B assay relative to control; conditions: read-out: Activity
[5] = test system: UACC-62; test: Growth inhibition of human UACC-62 cells assessed as cell growth at 0.01 uM incubated for 48 hrs by sulforhodamine B assay relative to control; conditions: read-out: Activity
[6] = test system: IGROV-1; test: Growth inhibition of human IGROV-1 cells assessed as cell growth at 0.01 uM incubated for 48 hrs by sulforhodamine B assay relative to control; conditions: read-out: Activity
[7] = test system: ACHN; test: Growth inhibition of human ACHN cells assessed as cell growth at 0.01 uM incubated for 48 hrs by sulforhodamine B assay relative to control; conditions: read-out: Activity
[8] = test system: SN12C; test: Growth inhibition of human SN12C cells assessed as cell growth at 0.01 uM incubated for 48 hrs by sulforhodamine B assay relative to control; conditions: read-out: Activity
[9] = test system: COLO 205; test: Growth inhibition of human COLO 205 cells assessed as cell growth at 0.1 uM incubated for 48 hrs by sulforhodamine B assay relative to control; conditions: read-out: Activity
[10] = test system: LOX IMVI; test: Growth inhibition of human LOX IMVI cells assessed as cell growth at 0.1 uM incubated for 48 hrs by sulforhodamine B assay relative to control; conditions: read-out: Activity
[11] = test system: 786-0; test: Growth inhibition of human 786-0 cells assessed as cell growth at 0.1 uM incubated for 48 hrs by sulforhodamine B assay relative to control; conditions: read-out: Activity
[12] = test system: Hs-578T; test: Growth inhibition of human Hs-578T cells assessed as cell growth at 0.1 uM incubated for 48 hrs by sulforhodamine B assay relative to control; conditions: read-out: Activity
[13] = test system: T47D; test: Growth inhibition of human T47D cells assessed as cell growth at 0.1 uM incubated for 48 hrs by sulforhodamine B assay relative to control; conditions: read-out: Activity
[14] = test system: HL-60(TB); test: Growth inhibition of human HL-60(TB) cells assessed as cell growth at 1 uM incubated for 48 hrs by sulforhodamine B assay relative to control; conditions: read-out: Activity
[15] = test system: NCI-H226; test: Growth inhibition of human NCI-H226 cells assessed as cell growth at 1 uM incubated for 48 hrs by sulforhodamine B assay relative to control; conditions: read-out: Activity
[16] = test system: NCI-H322M; test: Growth inhibition of human NCI-H322M cells assessed as cell growth at 1 uM incubated for 48 hrs by sulforhodamine B assay relative to control; conditions: read-out: Activity
[17] = test system: SK-OV-3; test: Growth inhibition of human SK-OV-3 cells assessed as cell growth at 1 uM incubated for 48 hrs by sulforhodamine B assay relative to control; conditions: read-out: Activity
[18] = test system: BT-549; test: Growth inhibition of human BT-549 cells assessed as cell growth at 1 uM incubated for 48 hrs by sulforhodamine B assay relative to control; conditions: read-out: Activity
[19] = test system: NCI-H460; test: Growth inhibition of human NCI-H460 cells assessed as cell growth at 100 uM incubated for 48 hrs by sulforhodamine B assay relative to control; conditions: read-out: Activity
[20] = test system: NCI-H522; test: Growth inhibition of human NCI-H522 cells assessed as cell growth at 100 uM incubated for 48 hrs by sulforhodamine B assay relative to control; conditions: read-out: Activity
[21] = test system: KM12; test: Growth inhibition of human KM12 cells assessed as cell growth at 100 uM incubated for 48 hrs by sulforhodamine B assay relative to control; conditions: read-out: Activity
[22] = test system: OVCAR-8; test: Growth inhibition of human OVCAR-8 cells assessed as cell growth at 100 uM incubated for 48 hrs by sulforhodamine B assay relative to control; conditions: read-out: Activity
[23] = test system: ACHN; test: Growth inhibition of human ACHN cells assessed as cell growth at 100 uM incubated for 48 hrs by sulforhodamine B assay relative to control; conditions: read-out: Activity
[24] = test system: MDA-MB-468; test: Growth inhibition of human MDA-MB-468 cells assessed as cell growth at 100 uM incubated for 48 hrs by sulforhodamine B assay relative to control; conditions: read-out: Activity
[25] = test system: CCRF-CEM; test: Growth inhibition of human CCRF-CEM cells incubated for 48 hrs by sulforhodamine B assay
[26] = test system: EKVX; test: Growth inhibition of human EKVX cells incubated for 48 hrs by sulforhodamine B assay
[27] = test system: HCC 2998; test: Growth inhibition of human HCC 2998 cells incubated for 48 hrs by sulforhodamine B assay
[28] = test system: SF-295; test: Growth inhibition of human SF-295 cells incubated for 48 hrs by sulforhodamine B assay
[29] = test system: SK-MEL-2; test: Growth inhibition of human SK-MEL-2 cells incubated for 48 hrs by sulforhodamine B assay
[30] = test system: ACHN; test: Growth inhibition of human ACHN cells incubated for 48 hrs by sulforhodamine B assay
[31] = test system: RXF 393; test: Growth inhibition of human RXF 393 cells incubated for 48 hrs by sulforhodamine B assay
[32] = test system: BT-549; test: Growth inhibition of human BT-549 cells incubated for 48 hrs by sulforhodamine B assay
[33] = test system: MDA-MB-468; test: Growth inhibition of human MDA-MB-468 cells incubated for 48 hrs by sulforhodamine B assay
[34] = read-out: LC50 (the source's name)
[35] = read-out: pLC50 (the source's name) (converted)

CC(=O)Nc1cc(CCl)cc(NC(=O)c2ccc(C(=O)Nc3cccc(NC(=O)CCCN(C)C)c3)cc2)c1
growth at 0.01 µM [1]: 102% | growth at 0.01 µM [2]: 98% | growth at 0.01 µM [3]: 96% | growth at 0.01 µM [4]: 96% | growth at 0.01 µM [5]: 100% | growth at 0.01 µM [6]: 113% | growth at 0.01 µM [7]: 105% | growth at 0.01 µM [8]: 104% | growth at 0.1 µM [9]: 108% | growth at 0.1 µM [10]: 92% | growth at 0.1 µM [11]: 104% | growth at 0.1 µM [12]: 116% | growth at 0.1 µM [13]: 103% | growth at 1 µM [14]: 99% | growth at 1 µM [15]: 91% | growth at 1 µM [16]: 100% | growth at 1 µM [17]: 106% | growth at 1 µM [18]: 108% | growth at 100 µM [19]: 99% | growth at 100 µM [20]: 83% | growth at 100 µM [21]: 88% | growth at 100 µM [22]: 96% | growth at 100 µM [23]: 104% | growth at 100 µM [24]: 51% | GI50 ([25]; read-out: GI50): 22.4 µM | CC50 [25, 34]: 78.2 µM | TGI ([25]; read-out: TGI): 41.8 µM | GI50 ([25]; read-out: pGI50 (converted)): 22.4 µM | CC50 [25, 35]: 77.6 µM | TGI ([25]; read-out: pTGI (converted)): 41.7 µM | GI50 ([26]; read-out: GI50): > 100 µM | LC50 ([26]; read-out: LC50): > 100 µM | TGI ([26]; read-out: TGI): > 100 µM | GI50 ([26]; read-out: pGI50 (converted)): > 100 µM | LC50 ([26]; read-out: pLC50 (converted)): > 100 µM | TGI ([26]; read-out: pTGI): > 100 µM | GI50 ([27]; read-out: GI50): > 100 µM | CC50 [27, 34]: > 100 µM | TGI ([27]; read-out: TGI): > 100 µM | GI50 ([27]; read-out: pGI50 (converted)): > 100 µM | CC50 [27, 35]: > 100 µM | TGI ([27]; read-out: pTGI): > 100 µM | GI50 ([28]; read-out: GI50): 37.8 µM | LC50 ([28]; read-out: LC50): > 100 µM | TGI ([28]; read-out: TGI): > 100 µM | GI50 ([28]; read-out: pGI50 (converted)): 38 µM | LC50 ([28]; read-out: pLC50 (converted)): > 100 µM | TGI ([28]; read-out: pTGI): > 100 µM | GI50 ([29]; read-out: GI50): > 100 µM | CC50 [29, 34]: > 100 µM | TGI ([29]; read-out: TGI): > 100 µM | GI50 ([29]; read-out: pGI50 (converted)): > 100 µM | CC50 [29, 35]: > 100 µM | TGI ([29]; read-out: pTGI): > 100 µM | GI50 ([30]; read-out: GI50): > 100 µM | CC50 [30, 34]: > 100 µM | TGI ([30]; read-out: TGI): > 100 µM | GI50 ([30]; read-out: pGI50 (converted)): > 100 µM | CC50 [30, 35]: > 100 µM | TGI ([30]; read-out: pTGI): > 100 µM | GI50 ([31]; read-out: GI50): > 100 µM | CC50 [31, 34]: > 100 µM | TGI ([31]; read-out: TGI): > 100 µM | GI50 ([31]; read-out: pGI50 (converted)): > 100 µM | CC50 [31, 35]: > 100 µM | TGI ([31]; read-out: pTGI): > 100 µM | GI50 ([32]; read-out: GI50): > 100 µM | CC50 [32, 34]: > 100 µM | TGI ([32]; read-out: TGI): > 100 µM | GI50 ([32]; read-out: pGI50 (converted)): > 100 µM | CC50 [32, 35]: > 100 µM | TGI ([32]; read-out: pTGI): > 100 µM | GI50 ([33]; read-out: GI50): > 100 µM | CC50 [33, 34]: > 100 µM | TGI ([33]; read-out: TGI): > 100 µM | GI50 ([33]; read-out: pGI50 (converted)): > 100 µM | CC50 [33, 35]: > 100 µM | TGI ([33]; read-out: pTGI): > 100 µM
